Assay results: paper PMC5478727, “A Novel Small Molecule GDNF Receptor RET Agonist, BT13, Promotes Neurite Growth from Sensory Neurons in Vitro and Attenuates Experimental Neuropathy in the Rat” (Frontiers in Pharmacology, 2017)

Columns and labels:
[1] = test system: dorsal root ganglia neurons of SNL rats; test: Immunohistochemistry of DRG neuronal markers in rats with spinal nerve ligation; type: in vivo, rat
From the text: DRGs from rats with spinal nerve ligation treated with BT13 or vehicle were embedded in paraffin and sectioned (7 μm thickness). Sections were deparaffinized, subjected to citrate or basic antigen-retrieval procedure and probed with IB4-Alexa 488 [1:200; IB4-Alexa488, Cat# IB4 (isolectin Griffonia simplicifolia IB4) RRID:AB_2314664] and antibodies against calcitonin gene-related peptide (CGRP; 1:10,000, Peninsula Laboratory, Cat# T-4032 RRID:AB_2313775), NPY (1:10,000, Peninsula Laboratory, Cat# T-4070.0050 RRID:AB_518504), pErk1/2 (1:300, Cell Signaling, Cat# 4370L RRID:AB_2297462), pS6 (1:300, Cell Signaling, Cat# 4858L RRID:AB_1031194) or RET [1:100, kind gift of Dr. E. Kramer, Center for Molecular Neurobiology, University Medical Center Hamburg-Eppendorf, Hamburg, Germany (Meka et al., [2015])] and corresponding secondary antibodies conjugated with fluorophores (Donkey Anti-Rabbit Alexa Fluor 647 conjugate, Cat# A31573 RRID:AB_162544; Donkey anti-Mouse Alexa Fluor 647 conjugate, Cat# A-31571 RRID:AB_2536181; Goat anti-Guinea Pig, Alexa Fluor 568 conjugate, Cat# A-11075 RRID:AB_2534119, Thermo Fisher Scientific, USA) or horse radish peroxidase (VECTASTAIN Elite ABC-Peroxidase Kit antibody, Vector Laboratories, CA, USA, Cat# PK-6101 RRID:AB_2336820). In the latter case, to reveal staining slides were treated with ABC and DAB staining kits (Vector Laboratories, CA, USA) according to the manufacturer's instructions. Sections were co-stained with guinea pig anti-PGP9.5 antibodies (Abcam Cat# ab10410 RRID:AB_297150) whenever possible. Nuclei were visualized using hematoxylin or DAPI dyes. Sections were mounted in Immu-Mount (Thermo Scientific, Cat#9990402) or Coverquick 2000 (Q PATH, Cat#05547530) mounting media and images were taken with fluorescent (Zeiss Imager M2 Axio, Carl Zeiss, Germany) or bright-field (Olympus BX-61, Olympus, Japan) microscopes. Neurons were counted for two sections per DRG and the number of cell profiles with nuclei positive for each specific marker was normalized to the total number of the neurons (identified by PGP9.5 staining or by morphology) per section. Ret-positive neurons were clustered by size using Matlab software R2014b (Mathworks, USA). Statistical analysis was performed using data from three to six individual animals. To obtain sufficient sample size, the data from animals treated with 20 and 25 mg/kg of BT13 were combined.

[2] = Plasma stability, rat plasma; type: in vitro ADME; conditions: read-out: Plasma stability (% remaining after 1 h)
[3] = biological target: T1, Protein Serine/Threonine Phosphatase, PP2A (Homo sapiens, UniProt P67775); test: CEREP Protein Serine/Threonine Phosphatase, PP2A; type: biochemical; conditions: BT13 1 μM; Cat. No. 3953; average of duplicate; read-out: Percentage of inhibition/potentiation from control
T1 construct: purchased CEREP (contract assay) 3953
T1 sequence (P67775 whole entry): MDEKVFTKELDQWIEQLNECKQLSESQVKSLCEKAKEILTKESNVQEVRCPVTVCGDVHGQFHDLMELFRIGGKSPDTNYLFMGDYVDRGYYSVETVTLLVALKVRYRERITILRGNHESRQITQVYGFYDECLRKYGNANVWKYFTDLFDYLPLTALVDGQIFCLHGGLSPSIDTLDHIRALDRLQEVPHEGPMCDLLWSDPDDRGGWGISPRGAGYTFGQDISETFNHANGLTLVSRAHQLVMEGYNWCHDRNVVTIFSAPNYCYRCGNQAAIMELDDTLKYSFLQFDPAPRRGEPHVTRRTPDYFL

KATP channel = KATP channel (Rattus norvegicus, UniProt Q09429); test: CEREP KATP channel (antagonist radioligand); type: binding; conditions: BT13 1 μM; Cat. No. 0165; average of duplicate; read-out: Percentage of inhibition/potentiation from control
Sequence of KATP channel (Q09429 whole entry): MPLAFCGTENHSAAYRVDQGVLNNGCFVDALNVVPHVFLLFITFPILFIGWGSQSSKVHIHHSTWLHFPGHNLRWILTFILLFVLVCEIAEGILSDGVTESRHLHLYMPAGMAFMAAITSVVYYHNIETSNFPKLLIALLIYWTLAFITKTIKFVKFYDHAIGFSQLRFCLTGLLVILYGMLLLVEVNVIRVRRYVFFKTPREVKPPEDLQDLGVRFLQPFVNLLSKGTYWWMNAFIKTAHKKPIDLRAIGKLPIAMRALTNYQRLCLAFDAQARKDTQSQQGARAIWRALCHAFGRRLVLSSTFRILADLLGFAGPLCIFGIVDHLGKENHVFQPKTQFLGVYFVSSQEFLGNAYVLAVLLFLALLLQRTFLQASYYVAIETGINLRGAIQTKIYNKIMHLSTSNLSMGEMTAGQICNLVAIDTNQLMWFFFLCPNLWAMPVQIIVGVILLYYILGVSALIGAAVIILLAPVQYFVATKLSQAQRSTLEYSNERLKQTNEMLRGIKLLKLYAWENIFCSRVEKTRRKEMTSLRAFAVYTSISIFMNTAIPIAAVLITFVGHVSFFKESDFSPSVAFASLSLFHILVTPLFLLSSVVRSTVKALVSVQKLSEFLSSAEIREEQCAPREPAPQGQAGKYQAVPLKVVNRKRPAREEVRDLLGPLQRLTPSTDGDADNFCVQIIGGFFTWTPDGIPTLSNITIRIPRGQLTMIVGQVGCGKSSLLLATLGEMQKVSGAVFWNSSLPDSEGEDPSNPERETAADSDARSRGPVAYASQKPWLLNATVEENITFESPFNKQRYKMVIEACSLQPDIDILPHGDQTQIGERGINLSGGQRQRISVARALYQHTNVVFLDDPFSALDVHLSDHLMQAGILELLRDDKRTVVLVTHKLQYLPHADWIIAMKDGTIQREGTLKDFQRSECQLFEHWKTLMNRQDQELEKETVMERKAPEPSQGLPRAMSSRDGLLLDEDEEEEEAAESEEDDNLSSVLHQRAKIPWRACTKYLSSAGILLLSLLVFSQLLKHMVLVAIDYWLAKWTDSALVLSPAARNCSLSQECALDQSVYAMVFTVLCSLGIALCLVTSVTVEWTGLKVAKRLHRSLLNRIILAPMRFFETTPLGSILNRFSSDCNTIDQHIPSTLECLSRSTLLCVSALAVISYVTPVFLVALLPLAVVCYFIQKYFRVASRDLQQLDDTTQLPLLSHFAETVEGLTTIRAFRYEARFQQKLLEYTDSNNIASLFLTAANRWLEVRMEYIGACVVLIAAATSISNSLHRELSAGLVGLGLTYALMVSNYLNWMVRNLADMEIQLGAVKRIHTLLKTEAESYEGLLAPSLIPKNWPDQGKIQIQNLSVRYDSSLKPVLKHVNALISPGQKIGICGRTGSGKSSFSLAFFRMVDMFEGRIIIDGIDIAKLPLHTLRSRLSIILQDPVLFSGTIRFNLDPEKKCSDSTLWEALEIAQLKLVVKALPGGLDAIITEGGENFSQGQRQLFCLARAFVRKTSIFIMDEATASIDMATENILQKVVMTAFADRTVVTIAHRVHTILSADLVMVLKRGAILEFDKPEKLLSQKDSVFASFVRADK
Sequence of KATP channel (P70673 whole entry partner): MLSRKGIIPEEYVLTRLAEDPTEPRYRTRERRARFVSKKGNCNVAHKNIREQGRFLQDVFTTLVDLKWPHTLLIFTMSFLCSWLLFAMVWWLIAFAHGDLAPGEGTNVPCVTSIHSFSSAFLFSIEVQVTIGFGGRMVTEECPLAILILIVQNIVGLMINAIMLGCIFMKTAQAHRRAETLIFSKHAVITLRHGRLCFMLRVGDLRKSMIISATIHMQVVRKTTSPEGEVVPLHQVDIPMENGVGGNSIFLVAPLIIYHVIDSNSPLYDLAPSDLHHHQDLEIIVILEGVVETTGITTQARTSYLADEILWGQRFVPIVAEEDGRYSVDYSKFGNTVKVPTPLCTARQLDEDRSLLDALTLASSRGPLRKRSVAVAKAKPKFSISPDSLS

[4] = biological target: opioid receptor delta (DOP) (Homo sapiens, UniProt P41143); test: CEREP Delta (DOP) (h) (agonist radioligand); type: binding; conditions: BT13 1 μM; Cat. No. 0114; average of duplicate; read-out: Percentage of inhibition/potentiation from control
[5] = Metabolic stability in liver microsomes; type: in vitro ADME; conditions: 0.5 mg/ml rat liver microsomes; read-out: Microsomal stability (% remaining in 30 min)
GABA receptor GABAB(1b) = GABA receptor GABAB(1b) (Homo sapiens, UniProt Q9UBS5); test: CEREP GABAB(1b) (h) (antagonist radioligand); type: binding; conditions: read-out: Percentage of inhibition/potentiation from control
[6] = biological target: T2, hERG (human Ether-à-go-go-related gene) (Homo sapiens, UniProt Q12809); test: hERG competition assay with [3H]-astemizole; type: binding; conditions: competition with [3H]-astemizole; membranes of HEK293 cells; read-out: hERG inhibition (Ki)
T2 construct: host or cells: HEK293

GFRα3/RET = biological target: T3, GFRα3/RET (Homo sapiens, UniProt P07949); test: Luciferase reporter-gene assay (PathDetect Elk-1), GFRα3/RET reporter cells; type: cell-based; conditions: GFRα3/RET reporter cell line
T3 construct: full-length human RET (long isoform) in pCR3.1; expressed in transfected cells; host or cells: MG87 murine fibroblasts (MG87RET + PathDetect Elk-1 + GFRα3)
T3 sequence (P07949 29-1114): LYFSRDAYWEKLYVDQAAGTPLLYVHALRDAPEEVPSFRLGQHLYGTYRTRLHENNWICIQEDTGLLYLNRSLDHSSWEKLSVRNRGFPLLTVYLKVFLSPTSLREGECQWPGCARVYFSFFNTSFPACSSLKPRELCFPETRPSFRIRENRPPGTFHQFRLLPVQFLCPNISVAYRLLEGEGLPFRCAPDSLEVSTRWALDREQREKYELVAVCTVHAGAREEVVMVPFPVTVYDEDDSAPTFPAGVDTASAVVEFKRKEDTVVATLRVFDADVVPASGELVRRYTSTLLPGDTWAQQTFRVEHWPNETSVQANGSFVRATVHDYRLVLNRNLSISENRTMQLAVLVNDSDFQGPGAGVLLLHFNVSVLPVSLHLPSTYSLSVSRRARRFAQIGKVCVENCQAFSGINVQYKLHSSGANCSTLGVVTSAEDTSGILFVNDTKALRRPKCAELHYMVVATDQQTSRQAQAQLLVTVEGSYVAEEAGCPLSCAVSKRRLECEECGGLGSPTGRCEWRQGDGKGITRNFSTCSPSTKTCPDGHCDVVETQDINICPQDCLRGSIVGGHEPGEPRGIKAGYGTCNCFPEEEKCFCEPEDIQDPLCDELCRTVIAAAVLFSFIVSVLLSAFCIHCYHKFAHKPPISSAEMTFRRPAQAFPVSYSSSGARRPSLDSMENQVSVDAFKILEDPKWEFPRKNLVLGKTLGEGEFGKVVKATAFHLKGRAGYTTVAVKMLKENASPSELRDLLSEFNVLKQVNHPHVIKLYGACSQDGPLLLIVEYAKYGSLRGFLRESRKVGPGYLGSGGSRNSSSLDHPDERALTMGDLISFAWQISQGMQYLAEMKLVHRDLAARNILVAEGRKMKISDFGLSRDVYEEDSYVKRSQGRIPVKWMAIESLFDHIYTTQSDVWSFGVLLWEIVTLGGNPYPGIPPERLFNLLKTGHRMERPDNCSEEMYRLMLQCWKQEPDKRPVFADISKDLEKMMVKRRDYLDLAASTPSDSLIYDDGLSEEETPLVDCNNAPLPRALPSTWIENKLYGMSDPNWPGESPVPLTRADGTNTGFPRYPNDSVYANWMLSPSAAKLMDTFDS

[7] = biological target: T4, serotonin receptor 5-HT1D (Rattus norvegicus, UniProt P28565); test: CEREP 5-HT1D (agonist radioligand); type: binding; conditions: BT13 1 μM; Cat. No. 1974; average of duplicate; read-out: Percentage of inhibition/potentiation from control
T4 construct: purchased CEREP (contract assay) 1974
T4 sequence (P28565 whole entry): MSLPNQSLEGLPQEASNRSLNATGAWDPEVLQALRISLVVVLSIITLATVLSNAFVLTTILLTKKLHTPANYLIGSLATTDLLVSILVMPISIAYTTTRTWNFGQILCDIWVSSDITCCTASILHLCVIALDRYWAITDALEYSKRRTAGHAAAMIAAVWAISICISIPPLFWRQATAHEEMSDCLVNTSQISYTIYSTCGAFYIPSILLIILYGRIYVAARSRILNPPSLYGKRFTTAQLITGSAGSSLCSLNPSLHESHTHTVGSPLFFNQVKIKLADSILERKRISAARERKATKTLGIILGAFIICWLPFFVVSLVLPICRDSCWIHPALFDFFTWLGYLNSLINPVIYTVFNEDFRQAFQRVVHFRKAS

dopamine transporter = dopamine transporter (Homo sapiens, UniProt Q01959); test: biochemical; conditions: read-out: Percentage of inhibition/potentiation from control
Sequence of dopamine transporter (Q01959 whole entry): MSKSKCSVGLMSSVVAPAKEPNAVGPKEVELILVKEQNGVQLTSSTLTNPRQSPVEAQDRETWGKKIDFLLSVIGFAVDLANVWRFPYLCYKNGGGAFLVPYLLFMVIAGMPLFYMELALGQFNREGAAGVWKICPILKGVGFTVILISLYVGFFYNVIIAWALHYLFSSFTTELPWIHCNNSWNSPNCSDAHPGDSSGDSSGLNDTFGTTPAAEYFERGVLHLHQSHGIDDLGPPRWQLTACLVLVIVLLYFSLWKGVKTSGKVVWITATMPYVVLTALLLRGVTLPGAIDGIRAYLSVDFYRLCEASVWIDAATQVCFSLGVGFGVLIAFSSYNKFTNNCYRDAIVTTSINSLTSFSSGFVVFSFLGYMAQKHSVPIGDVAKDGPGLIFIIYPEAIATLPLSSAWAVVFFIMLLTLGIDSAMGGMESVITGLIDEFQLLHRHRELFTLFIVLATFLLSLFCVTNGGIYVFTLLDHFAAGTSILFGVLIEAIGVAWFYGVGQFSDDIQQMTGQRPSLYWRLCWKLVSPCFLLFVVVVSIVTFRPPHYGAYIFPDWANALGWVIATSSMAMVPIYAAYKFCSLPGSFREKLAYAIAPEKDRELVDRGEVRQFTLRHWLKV

[8] = biological target: T5, GDNF receptor complexes (cells overexpressing GFRα1/RET) (Homo sapiens, UniProt P07949); test: Displacement of 125I-GDNF; type: binding; conditions: BT13 50 μM; n = 5
T5 construct: full-length human RET (long isoform) in pCR3.1; expressed in transfected cells
T5 sequence (P07949 29-1114, one chain of several): as the sequence (P07949 29-1114) above

dopamine receptor D2L = dopamine receptor D2L (Homo sapiens, UniProt P14416); test: CEREP D2L (h) (antagonist radioligand); type: binding; conditions: BT13 1 μM; Cat. No. 1405; average of duplicate; read-out: Percentage of inhibition/potentiation from control
Sequence of dopamine receptor D2L (P14416 whole entry): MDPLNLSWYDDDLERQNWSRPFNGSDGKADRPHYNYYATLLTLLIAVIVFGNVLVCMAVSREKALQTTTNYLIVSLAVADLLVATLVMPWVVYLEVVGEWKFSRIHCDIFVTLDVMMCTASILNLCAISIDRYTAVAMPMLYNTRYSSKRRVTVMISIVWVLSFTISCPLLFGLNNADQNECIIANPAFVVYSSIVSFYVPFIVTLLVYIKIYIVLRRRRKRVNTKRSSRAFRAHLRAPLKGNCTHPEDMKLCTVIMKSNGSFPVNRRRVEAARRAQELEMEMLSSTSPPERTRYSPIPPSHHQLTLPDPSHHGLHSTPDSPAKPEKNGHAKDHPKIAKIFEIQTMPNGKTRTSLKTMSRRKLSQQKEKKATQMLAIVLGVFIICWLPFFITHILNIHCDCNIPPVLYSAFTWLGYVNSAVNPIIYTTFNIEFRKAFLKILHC

[9] = SNL rats, BT13 vs vehicle, day 12
[10] = SNL rats, vs vehicle-treated animals

CCN(CC)S(=O)(=O)c1ccc(OC)c(N2CCN(C(=O)c3ccc(F)cc3C(F)(F)F)CC2)c1 [BT13]
reduction in the number of RET-positive cells in DRGs after SNL ([1]; IHC, day 12 after SNL): restored
number of large RET-positive neurons in lesioned DRGs ([1]; IHC, size above 1,000 μm^2, vs contralateral): increased
number of small RET-positive neurons in lesioned DRGs ([1]; IHC, size below 1,000 μm^2, vs contralateral): decreased
IB4 positive cells per section in ipsilateral DRGs ([1]; SNL rats, BT13 20 and 25 mg/kg combined, day 12): 3%
number of NPY-positive neurons in contralateral DRGs ([1]; SNL rats, BT13-treated, vehicle 0.0 ± 0.0): 0.0 ± 0.0
number of CGRP-positive neurons in contralateral DRGs ([1]; SNL rats, BT13-treated, vehicle 34.30 ± 1.344): 25.09 ± 2.687
number of IB4-positive neurons in contralateral DRGs ([1]; SNL rats, BT13-treated, vehicle 44.95 ± 4.295): 44.82 ± 1.960
increase in number of CGRP-positive neurons in ipsilateral DRGs [1, 9]: ~ 2 times
reduction in number of NPY-positive cells in ipsilateral DRGs [1, 9]: ~ 25%
number of neurons positive for pErk in DRGs [1, 10]: increased
number of neurons positive for pS6 in DRGs [1, 10]: increased
remaining at 1 h [2]: 108 ± 7.3%
inhibition at 1 µM [3]: 4%
inhibition at 1 µM (KATP channel): 8%
inhibition at 1 µM [4]: 3%
Cytotoxicity to human hepatoma cells (HepG2; LD50) (HepG2 cells): 90.4 ± 8.5 µM
remaining at 0.5 h [5]: 2.8 ± 0.1%
inhibition at 1 µM (GABA receptor GABAB(1b)): -2%
Ki [6]: > 30 µM
efficacy, fold induction of luciferase above baseline (GFRα3/RET): 8.9 fold
EC50 (GFRα3/RET; 0.1–50 μM, read-out: EC50, luciferase activation): 20.5 µM
inhibition at 1 µM [7]: 1%
inhibition at 1 µM (dopamine transporter): 6%
reduction of 125I-GDNF binding [8]: 25 ± 10.2%
inhibition at 1 µM (dopamine receptor D2L): -3%
